Like-named read-outs stand apart in the source and are kept apart here. One block for each molecule: values may come before it.
What was measured:
[1] = system: GPR158 R173A, E271A, and Y269A mutants
GPR158 [2] = target: T1, GPR158 (Homo sapiens, UniProt Q5T848)
T1 sequence (Q5T848 24-1215): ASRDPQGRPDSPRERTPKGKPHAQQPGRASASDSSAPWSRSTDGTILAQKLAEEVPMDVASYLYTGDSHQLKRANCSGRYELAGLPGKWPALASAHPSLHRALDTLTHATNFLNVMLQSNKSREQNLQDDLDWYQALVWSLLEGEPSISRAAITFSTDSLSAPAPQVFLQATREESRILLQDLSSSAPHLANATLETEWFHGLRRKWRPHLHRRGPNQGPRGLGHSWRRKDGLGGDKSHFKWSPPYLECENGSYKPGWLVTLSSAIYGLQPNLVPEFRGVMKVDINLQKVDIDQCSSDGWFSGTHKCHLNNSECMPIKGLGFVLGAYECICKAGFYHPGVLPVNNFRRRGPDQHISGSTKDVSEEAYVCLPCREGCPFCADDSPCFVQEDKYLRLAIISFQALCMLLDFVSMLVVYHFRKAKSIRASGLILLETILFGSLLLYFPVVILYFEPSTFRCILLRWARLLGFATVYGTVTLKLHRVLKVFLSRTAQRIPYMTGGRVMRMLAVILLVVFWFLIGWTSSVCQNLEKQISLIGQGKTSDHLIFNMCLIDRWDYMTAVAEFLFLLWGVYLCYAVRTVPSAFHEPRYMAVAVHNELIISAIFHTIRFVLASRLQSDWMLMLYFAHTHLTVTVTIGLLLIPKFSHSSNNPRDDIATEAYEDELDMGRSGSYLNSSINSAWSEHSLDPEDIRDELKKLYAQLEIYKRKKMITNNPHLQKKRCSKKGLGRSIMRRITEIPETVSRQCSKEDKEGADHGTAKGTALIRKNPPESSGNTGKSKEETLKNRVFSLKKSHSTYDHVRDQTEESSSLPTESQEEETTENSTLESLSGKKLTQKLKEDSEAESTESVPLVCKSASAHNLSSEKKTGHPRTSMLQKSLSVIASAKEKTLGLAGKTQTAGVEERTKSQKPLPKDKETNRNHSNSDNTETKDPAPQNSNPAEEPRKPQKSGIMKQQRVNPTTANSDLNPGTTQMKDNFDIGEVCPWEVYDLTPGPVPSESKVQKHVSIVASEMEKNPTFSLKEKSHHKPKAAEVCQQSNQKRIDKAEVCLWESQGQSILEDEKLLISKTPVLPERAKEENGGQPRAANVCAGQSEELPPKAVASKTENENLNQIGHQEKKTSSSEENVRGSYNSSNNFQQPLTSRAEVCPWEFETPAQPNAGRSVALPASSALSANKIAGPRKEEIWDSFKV

[3] = system: layer II-III neurons in the prelimbic cortex; test: Slice electrophysiology, intrinsic excitability of cortical neurons; type: cell-based, mice
GPR158 [4] = target: T1, GPR158; test: BRET-based cAMP biosensor screen in HEK293 cells expressing GPR158; type: cell-based; details: for cAMP change in cells expressing GPR158 relative to non-transfected cells: BRET cAMP biosensor
GPR158 [5] = target: T1, GPR158; test: G protein activation by GPR158; type: cell-based; details: any G proteins tested
GPR158-RGS7/Gβ5 complex = target: T2, GPR158-RGS7/Gβ5 complex (Homo sapiens, UniProt Q5T848); test: BRET-based GAP assay; type: cell-based
T2 sequence (Q5T848 24-1215): T1 sequence (Q5T848 24-1215)
T2 sequence (P49802 1-495 partner): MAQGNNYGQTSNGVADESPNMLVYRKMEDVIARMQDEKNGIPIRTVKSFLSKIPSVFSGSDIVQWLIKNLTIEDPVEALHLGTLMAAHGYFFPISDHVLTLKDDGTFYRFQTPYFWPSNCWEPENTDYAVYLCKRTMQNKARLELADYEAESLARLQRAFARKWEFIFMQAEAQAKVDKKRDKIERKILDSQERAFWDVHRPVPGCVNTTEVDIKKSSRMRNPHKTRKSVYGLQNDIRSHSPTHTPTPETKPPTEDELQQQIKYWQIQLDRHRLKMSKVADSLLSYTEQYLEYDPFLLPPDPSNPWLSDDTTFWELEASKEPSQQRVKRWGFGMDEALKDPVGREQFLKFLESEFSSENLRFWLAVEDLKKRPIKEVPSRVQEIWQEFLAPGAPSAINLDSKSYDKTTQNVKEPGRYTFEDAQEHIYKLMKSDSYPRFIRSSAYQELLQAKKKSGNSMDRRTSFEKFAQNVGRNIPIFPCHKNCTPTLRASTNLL
T2 sequence (O14775 1-395 partner): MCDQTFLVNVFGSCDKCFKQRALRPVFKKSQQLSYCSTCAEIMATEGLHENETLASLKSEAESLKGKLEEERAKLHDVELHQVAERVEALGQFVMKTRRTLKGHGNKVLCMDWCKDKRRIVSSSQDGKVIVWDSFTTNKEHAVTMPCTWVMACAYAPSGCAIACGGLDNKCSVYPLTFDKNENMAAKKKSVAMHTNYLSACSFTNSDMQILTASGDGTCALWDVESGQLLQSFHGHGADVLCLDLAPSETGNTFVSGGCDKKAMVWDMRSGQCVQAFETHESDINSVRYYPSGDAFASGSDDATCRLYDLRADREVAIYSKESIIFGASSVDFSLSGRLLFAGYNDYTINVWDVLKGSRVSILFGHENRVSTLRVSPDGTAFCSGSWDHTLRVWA

GPR158 [6] = target: T1, GPR158; remark: listed apart in the source
GPR158 [7] = target: T1, GPR158; remark: listed apart in the source
GPR158 [8] = target: T1, GPR158; test: Binding competition, displacement of [3H]-glycine bound to GPR158

Structure (SMILES): NCC(=O)O [[^3H]-glycine, reference compound]
[3H]-glycine binding to mutants [1]: near complete loss
binding to GPR158-expressing cells (GPR158 [2]; HEK293 cells expressing GPR158, across concentrations): significant binding

Structure (SMILES): NCC(=O)O [glycine]
resting membrane potential ([3]; layer II-III neurons): without changes
amount of current necessary to elicit the first action potential (rheobase) ([3]; layer II-III neurons, glycine 1mM): decreasing
number of action potentials ([3]; layer II-III neurons, glycine 1mM, synaptic blockade): significantly increased
intrinsic excitability of layer V neurons ([3]; layer V neurons, which do not express GPR158): did not produce any changes
excitability of layer II-III neurons in Gpr158 KO mice ([3]; prefrontal cortex, Gpr158 KO mice, glycine 1mM): failed to alter excitability
cAMP change in cells expressing GPR158 relative to non-transfected cells (GPR158 [4]): significant decrease in cAMP
Kd (GPR158 [2]; read-out: Kd of GPR158 for glycine, Scatchard analysis, membranes containing GPR158): ~3 µM
activation of G proteins by GPR158 (GPR158 [5]): no significant activation
effect on Gαo deactivation, GPR158 co-expressed with RGS7/Gβ5 (GPR158-RGS7/Gβ5 complex; 100μM): significantly decelerated Gαo deactivation
effect on baseline or RGS7/Gβ5-assisted Gαo deactivation without GPR158 (GPR158-RGS7/Gβ5 complex; cells without GPR158, 100μM): no effect
β-arrestin recruitment to GPR158 (GPR158 [6]): no significant response
cAMP change in cells lacking GPR158 (GPR158 [7]; U87 glioblastoma cells lacking GPR158, glycine 100μM): No glycine-induced changes in cAMP
cAMP change in cells expressing GPR158 (GPR158 [7]; U87 glioblastoma cells, 10μM forskolin, glycine 100μM): cAMP decrease
IC50 (GPR158 [8]; read-out: IC50, displacement of [3H]-glycine bound to GPR158): ~3 µM

effect on GPR158-mediated suppression of cAMP compared directly with glycine (GPR158 [4]): weaker than the effect of glycine
cAMP change in cells expressing GPR158 relative to non-transfected cells (GPR158 [4]): significant decrease in cAMP levels
activation of G proteins by GPR158 (GPR158 [5]): no significant activation
IC50 (GPR158-RGS7/Gβ5 complex): ~6 µM
IC50 (GPR158 [8]): ~6 µM
affinity relative to glycine (GPR158 [8]; competition with [3H]-glycine): two-fold lower affinity
Structure (SMILES): NCCS(=O)(=O)O [taurine]
excitability (neuronal firing) of layer II-III neurons ([3]; taurine): small effects on neuronal firing

— paper PMC10751545 (Science (New York, N.Y.), 2023)
